Results published in US8716236B2, “Inhibitors of IAP” (Genentech, Inc., priority 2012, dated 2014).

Test system: human breast MDA-MB-231•X1 cells
Assay: Tumor xenograft study
Format: in vivo, mouse
Settings: MDA-MB-231•X1 xenograft in female nude mice, iv Qwk
Experimental: All procedures involving animals were performed in accordance with the guidelines of the Genentech Institutional Animal Care and Use Committee. Cancer cells such as Human breast MDA-MB-231, colorectal, Colo205, or NSCLC, Calu6 cancer cells were obtained from American Type Culture Collection (Manassas, Va.). Cells were resuspended in HBSS (Colo205) or the cell suspension was mixed 1:1 with Matrigel (BD Biosciences; MDA-MB-231, Calu6). The cells (1.5×10^7 for MDA-MB-231; 5.0×10^7 for Colo205, Calu6) were then implanted subcutaneously into the right flank of female nude mice (Charles River Laboratories, Hollister, Calif.) aged 6-8 weeks. Tumor volumes were calculated using the mean diameter measured with vernier calipers using the formula v=0.5×a×b^2, were a and b are the largest and smallest perpendicular tumor diameters, respectively. Ten mice with the appropriate mean tumor volume were assigned randomly to each of six groups. The mean tumor volume±the standard error of the mean (SEM) for all six groups was 168±3 mm^3 at the initiation of treatment (Day 0). The mice were observed on each day of the study, and tumor volumes and body weights were measured twice each week.

| Compound | MED [mg/kg] |
| --- | --- |
| CN[C@@H](C)C(=O)N[C@H](C(=O)N1CCC[C@H]1C(=O)Nc1sc(-c2ncco2)nc1-c1ccccc1)C1CCCCC1 [Ia, (S)-1-[(S)-2-cyclohexyl-2-((S)-2-methylamino-propionylamino)-acetyl]-pyrrolidine-2-carboxylic acid (2-oxazol-2-yl-4-phenyl-thiazol-5-yl)-amide] | 3.4 |
| CN[C@@H](C)C(=O)N[C@H](C(=O)N1CCCC1C(=O)Nc1snnc1-c1ccccc1)C1CCCCC1 (some centres unmarked) [III] | 18.6 |
